The text below walks through data of ChEMBL document CHEMBL4699490, “Production of Highly Active Antiparasitic Compounds from the Controlled Halogenation of the Arrabidaea brachypoda Crude Plant Extract” (J Nat Prod, 2020).

The term IC50 denotes the concentration needed to halve the response being measured. A low value points to higher potency. A word on the CC50: it is the concentration at which the toxic effect on the cells reaches its halfway point.

One series has as its system Trypanosoma cruzi. The series can be described thus: Antiparasitic activity against intracellular Trypanosoma cruzi amastigotes infected in mouse peritoneal macrophage measured after 72 hrs. The class given is functional, organism-based.
The nature of series [1]: Selectivity index, ratio of CC50 for mouse peritoneal macrophages to IC50 for Leishmania amazonensis amastigotes infected in BALB/c mouse peritoneal macrophages. The class given is toxicity. The note with it: read-out: Ratio CC50/IC50.
Series [2] is described as follows: Selectivity index, ratio of CC50 for mouse peritoneal macrophages to IC50 for Trypanosoma cruzi amastigotes infected in BALB/c mouse peritoneal macrophages. The format is toxicity. The note with it: read-out: Ratio CC50/IC50.
Series [3] is described as follows: Cytotoxicity against Balb/c mouse peritoneal macrophage assessed as cell viability measured after 72 hrs by alamar blue assay. The class given is tissue-based. The note with it: peritoneal macrophages. On the technique in general: The colour change of resazurin is a common sign of viable cells or microbes.
In the next series the test system is Leishmania amazonensis. The series can be described thus: Antiparasitic activity against intracellular Leishmania amazonensis amastigotes infected in mouse peritoneal macrophage measured after 72 hrs. The class given is functional, organism-based.

Regarding `COc1ccc(/C=C/[C@@H]2c3c(OC)c(Br)c(O)c(Br)c3O[C@H]3c4c(OC)cc(O)c(Br)c4O[C@H](c4ccccc4)[C@@H]23)cc1`, the IC50 was 3.8 µM with Trypanosoma cruzi and 4.5 µM in the series with Leishmania amazonensis. The figures for the selectivity ratio in series [1] and in series [2] were greater than 22 and greater than 26, respectively. Besides, in series [3], the CC50 at 72 h was greater than 100 µM.
For `COc1cc(O)cc2c1[C@@H](/C=C/c1ccccc1)[C@@H]1[C@@H](c3ccccc3)Oc3cc(O)cc(OC)c3[C@@H]1O2`, the selectivity ratio in series [1] came out at 3.2. Besides, the CC50 at 72 h in series [3] is greater than 20 µM. Moreover, half-maximal inhibition in the series on Leishmania amazonensis (IC50) was put at 6.3 µM.
On to `COc1cc(O)c(Cl)c2c1[C@@H](/C=C/c1ccccc1)[C@@H]1[C@@H](c3ccccc3)Oc3cc(O)cc(OC)c3[C@@H]1O2`, for which the values for the IC50 in the series on Trypanosoma cruzi and in the series on Leishmania amazonensis were 1.4 µM and 1.2 µM, respectively. The selectivity ratio was greater than 83 in series [1] and greater than 71 in series [2]. In addition, the CC50 at 72 h in series [3] was greater than 100 µM.
`COc1cc(O)c(I)c2c1[C@@H](/C=C/c1ccccc1)[C@@H]1[C@@H](c3ccccc3)Oc3cc(O)cc(OC)c3[C@@H]1O2`: the IC50 in the series with Trypanosoma cruzi was 1.9 µM; with Leishmania amazonensis it was greater than 10 µM. The selectivity ratio in series [2] was greater than 53. The cytotoxic concentration (CC50) at 72 h in series [3] was greater than 100 µM.
Take `COc1ccc(/C=C/[C@@H]2c3c(OC)cc(O)c(Cl)c3O[C@H]3c4c(OC)cc(O)cc4O[C@H](c4ccccc4)[C@@H]23)cc1`: the results for the IC50 in the series with Trypanosoma cruzi and in the series on Leishmania amazonensis were 1.4 µM and greater than 10 µM, respectively. Further, in series [2], the selectivity ratio is greater than 71. In series [3], the CC50 at 72 h was greater than 100 µM.
In the case of `COc1ccc(/C=C/[C@@H]2c3c(OC)cc(O)c(I)c3O[C@H]3c4c(OC)cc(O)c(I)c4O[C@H](c4ccccc4)[C@@H]23)cc1`, the half-maximal inhibitory concentration (IC50) in the series with Trypanosoma cruzi is 2.5 µM; with Leishmania amazonensis it was 4.7 µM. The selectivity ratio is greater than 21 in series [1] and greater than 40 in series [2]. Besides, in series [3], the CC50 at 72 h was greater than 100 µM.
Take `COc1ccc(/C=C/[C@@H]2c3c(OC)cc(O)c(Cl)c3O[C@H]3c4c(OC)cc(O)c(Cl)c4O[C@H](c4ccccc4)[C@@H]23)cc1`: the IC50 in the series on Trypanosoma cruzi was 2.2 µM; in the series with Leishmania amazonensis it was 3.4 µM. Moreover, the selectivity ratio is greater than 29 in series [1] and greater than 45 in series [2]. Besides, the half-maximal cytotoxic concentration (CC50) at 72 h in series [3] is greater than 100 µM.
For `COc1cc(O)c(Br)c2c1[C@@H]1Oc3c(Br)c(O)c(Br)c(OC)c3[C@@H](/C=C/c3ccc(O)cc3)[C@@H]1[C@@H](c1ccccc1)O2`, the half-inhibitory concentration (IC50) in the series on Trypanosoma cruzi is greater than 10 µM; with Leishmania amazonensis, 6.5 µM. In series [1], the selectivity ratio is greater than 15. Further, the cytotoxic concentration (CC50) at 72 h in series [3] was greater than 100 µM.
For the molecule `COc1cc(O)c(Br)c2c1[C@@H](/C=C/c1ccc(O)cc1)[C@@H]1[C@@H](c3ccccc3)Oc3c(Br)c(O)cc(OC)c3[C@@H]1O2`, the figures for the IC50 in the series on Trypanosoma cruzi and in the series on Leishmania amazonensis were 8.3 µM and 2.5 µM, respectively. Moreover, the selectivity ratio is greater than 40 in series [1] and greater than 12 in series [2]. Moreover, in series [3], the CC50 at 72 h was greater than 100 µM.
Consider `COc1ccc(/C=C/[C@@H]2c3c(OC)cc(O)c(Br)c3O[C@H]3c4c(OC)cc(O)c(Br)c4O[C@H](c4ccccc4)[C@@H]23)cc1`, for which the IC50 in the series on Trypanosoma cruzi was 4.7 µM; in the series on Leishmania amazonensis it was 3.6 µM. The results for the selectivity ratio in series [1] and in series [2] were greater than 28 and greater than 21, respectively. In addition, the CC50 at 72 h in series [3] was greater than 100 µM.
Regarding `COc1ccc(/C=C/[C@@H]2c3c(OC)cc(O)cc3O[C@H]3c4c(OC)cc(O)c(I)c4O[C@H](c4ccccc4)[C@@H]23)cc1`, the half-maximal inhibitory concentration (IC50) with Trypanosoma cruzi stood at 1.6 µM; in the series on Leishmania amazonensis it was 5.4 µM. Besides, the selectivity ratio was greater than 19 in series [1] and greater than 63 in series [2]. Besides, the CC50 at 72 h in series [3] was greater than 100 µM.
`COc1cc(O)c(I)c2c1[C@@H](/C=C/c1ccccc1)[C@@H]1[C@@H](c3ccccc3)Oc3c(I)c(O)cc(OC)c3[C@@H]1O2`: the IC50 with Trypanosoma cruzi was determined as 6.5 µM; in the series on Leishmania amazonensis, 3.9 µM. The selectivity ratio was greater than 26 in series [1] and greater than 15 in series [2]. In series [3], the CC50 at 72 h is greater than 100 µM.
On to `COc1cc(O)cc2c1[C@@H](/C=C/c1ccc(O)cc1)[C@@H]1[C@@H](c3ccccc3)Oc3cc(O)cc(OC)c3[C@@H]1O2`, for which the CC50 at 72 h in series [3] was greater than 20 µM. In addition, in the series with Leishmania amazonensis, the 50% inhibitory concentration (IC50) is greater than 20 µM.
For `C[C@@H]1[C@H](O)[C@@H](C)/C=C/C=C/C=C/C=C/C=C/C=C/C=C/[C@H](O[C@@H]2O[C@H](C)[C@@H](O)[C@H](N)[C@@H]2O)C[C@@H]2O[C@](O)(C[C@@H](O)C[C@@H](O)[C@H](O)CC[C@@H](O)C[C@@H](O)CC(=O)O[C@H]1C)C[C@H](O)[C@H]2C(=O)O` [AMPHOTERICIN B], the selectivity ratio in series [1] was greater than 217. For the same molecule, the half-maximal cytotoxic concentration (CC50) at 72 h in series [3] is greater than 50 µM. This molecule came in with a concentration for half-maximal inhibition (IC50) in the series on Leishmania amazonensis of 0.2 µM.
Turning to `O=C(Cn1ccnc1[N+](=O)[O-])NCc1ccccc1` [BENZNIDAZOLE], the half-maximal inhibitory concentration (IC50) in the series on Trypanosoma cruzi stood at 1.4 µM. Also, in series [2], the selectivity ratio is greater than 35. The half-maximal cytotoxic concentration (CC50) at 72 h in series [3] was greater than 100 µM.
Regarding `COc1ccc(/C=C/[C@@H]2c3c(OC)cc(O)c(Br)c3O[C@H]3c4c(OC)cc(O)cc4O[C@H](c4ccccc4)[C@@H]23)cc1`, the figures for the IC50 in the series with Trypanosoma cruzi and in the series on Leishmania amazonensis were 3.6 µM and 3.3 µM, respectively. The selectivity ratio in series [1] is greater than 30; in series [2] it was greater than 28. In series [3], the cytotoxic concentration (CC50) at 72 h is greater than 100 µM.
As to `COc1cc(O)c(Br)c2c1[C@@H]1Oc3c(Br)c(O)c(Br)c(OC)c3[C@@H](/C=C/c3ccccc3)[C@@H]1[C@@H](c1ccccc1)O2`, the results for the half-maximal inhibitory concentration (IC50) in the series with Trypanosoma cruzi and in the series on Leishmania amazonensis were 2.9 µM and 1 µM, respectively. In addition, the selectivity ratio is greater than 100 in series [1] and greater than 34 in series [2]. Also, in series [3], the cytotoxic concentration (CC50) at 72 h was greater than 100 µM.
For `COc1cc(O)c(I)c2c1[C@@H](/C=C/c1ccc(O)cc1)[C@@H]1[C@@H](c3ccccc3)Oc3c(I)c(O)cc(OC)c3[C@@H]1O2`, in that order: 1.8 µM, 7.8 µM, greater than 13, greater than 56 and greater than 100 µM.
Regarding `COc1ccc(/C=C/[C@@H]2c3c(OC)cc(O)cc3O[C@H]3c4c(OC)cc(O)cc4O[C@H](c4ccccc4)[C@@H]23)cc1`, in series [1], the selectivity ratio came out at 9.1. The 50% cytotoxic concentration (CC50) at 72 h in series [3] was greater than 20 µM. Moreover, the concentration for half-maximal inhibition (IC50) with Leishmania amazonensis is 2.2 µM.
For `COc1cc(O)c(Br)c2c1[C@@H](/C=C/c1ccccc1)[C@@H]1[C@@H](c3ccccc3)Oc3c(Br)c(O)cc(OC)c3[C@@H]1O2`, the values for the IC50 with Trypanosoma cruzi and with Leishmania amazonensis were 1.6 µM and 1.7 µM, respectively. Further, the selectivity ratio was greater than 59 in series [1] and greater than 63 in series [2]. Further, the CC50 at 72 h in series [3] was greater than 100 µM.
